Where two headings read alike, the source gives them in different places.
What was measured:
[1] = target: T1, T. gondii (Tg) dihydrofolate reductase (Toxoplasma gondii, UniProt Q07422); format: biochemical
[2] = target: M. avium (Ma) dihydrofolate reductase (Mycobacterium avium, UniProt O30463); assay: biochemical
rat liver DHFR = target: T2, rat liver DHFR (Rattus norvegicus, UniProt Q920D2); assay: Standardized spectrophotometric DHFR inhibition assay, rat liver enzyme; format: biochemical
T2 construct: rat liver DHFR; from tissue; host or cells: rat liver
T2 sequence (Q920D2 1-187): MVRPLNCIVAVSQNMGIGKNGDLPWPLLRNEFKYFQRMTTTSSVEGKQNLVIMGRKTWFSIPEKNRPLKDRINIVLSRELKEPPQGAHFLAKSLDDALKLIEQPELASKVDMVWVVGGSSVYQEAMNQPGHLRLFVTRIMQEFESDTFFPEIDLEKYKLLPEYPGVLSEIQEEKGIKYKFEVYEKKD

[3] = target: P. carinii (Pc) dihydrofolate reductase (Pneumocystis carinii, UniProt P16184); assay: Standardized spectrophotometric DHFR inhibition assay, P. carinii enzyme; format: biochemical; settings: for IC50: Pc DHFR
[4] = target: T1, T. gondii (Tg) dihydrofolate reductase; settings: cited from earlier work; for IC50: read-out: IC50 against Tg DHFR
[5] = relative to rat liver DHFR, 95% confidence limits in parentheses

Sequence of M. avium (Ma) dihydrofolate reductase (O30463 1-181): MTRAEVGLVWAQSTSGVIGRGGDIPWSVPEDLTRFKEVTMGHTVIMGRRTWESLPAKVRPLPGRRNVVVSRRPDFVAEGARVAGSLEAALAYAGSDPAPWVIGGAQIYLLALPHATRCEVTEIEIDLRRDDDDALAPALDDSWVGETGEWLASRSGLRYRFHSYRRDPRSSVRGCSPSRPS
T1 sequence (Q07422 whole entry): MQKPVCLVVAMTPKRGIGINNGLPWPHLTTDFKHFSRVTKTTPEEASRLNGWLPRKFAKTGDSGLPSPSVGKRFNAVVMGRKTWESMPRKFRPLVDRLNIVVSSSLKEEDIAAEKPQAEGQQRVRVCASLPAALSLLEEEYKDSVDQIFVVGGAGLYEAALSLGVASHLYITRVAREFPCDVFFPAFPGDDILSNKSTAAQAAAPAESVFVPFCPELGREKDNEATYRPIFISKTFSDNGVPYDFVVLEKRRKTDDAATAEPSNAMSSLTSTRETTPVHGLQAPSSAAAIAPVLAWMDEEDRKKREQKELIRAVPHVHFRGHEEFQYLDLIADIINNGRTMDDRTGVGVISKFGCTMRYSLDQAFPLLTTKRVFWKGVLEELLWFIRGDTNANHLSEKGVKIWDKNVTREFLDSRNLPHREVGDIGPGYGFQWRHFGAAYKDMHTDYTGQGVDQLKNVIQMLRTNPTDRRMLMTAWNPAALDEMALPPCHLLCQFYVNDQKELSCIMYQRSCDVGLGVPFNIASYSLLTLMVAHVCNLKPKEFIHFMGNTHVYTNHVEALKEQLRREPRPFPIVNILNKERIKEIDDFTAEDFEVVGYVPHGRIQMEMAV
Sequence of P. carinii (Pc) dihydrofolate reductase (P16184 whole entry): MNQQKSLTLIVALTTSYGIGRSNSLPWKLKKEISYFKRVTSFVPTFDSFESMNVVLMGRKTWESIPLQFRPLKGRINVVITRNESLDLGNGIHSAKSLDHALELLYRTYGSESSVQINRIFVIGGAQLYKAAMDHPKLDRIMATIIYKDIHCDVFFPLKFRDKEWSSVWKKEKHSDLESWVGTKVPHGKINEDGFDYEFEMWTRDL

Structure (SMILES)	IC50 [1]	IC50 ([2]; Ma DHFR)	IC50 ([1]; Tg DHFR)	IC50 (rat liver DHFR)	IC50 [3]	IC50 [2]	other results
COc1ccc(OCCCCC(=O)O)cc1Cc1cnc(N)nc1N [Compound 1b, reference compound]	0.11 µM	0.058 µM					
COc1ccc(C#CCCC(=O)O)cc1Cc1cnc(N)nc1N [Compound 2]			0.097 µM				
COc1ccc(C#CCCCC(=O)O)cc1Cc1cnc(N)nc1N [Compound 3]	0.032 µM	0.007 µM		2.2 µM	0.028 µM		melting point: 121 to 124 °C
COc1ccc(C#CCCCCC(=O)O)cc1Cc1cnc(N)nc1N [Compound 4]	0.072 µM			25 µM	0.87 µM	0.041 µM	melting point: 187 to 189 °C
COc1ccc(CCCCC(=O)O)cc1Cc1cnc(N)nc1N [Compound 5]		0.035 µM	0.058 µM	3.2 µM	0.15 µM		melting point: 134 to 137 °C
COc1ccc(CCCCCC(=O)O)cc1Cc1cnc(N)nc1N [Compound 6]		0.016 µM	0.0084 µM	4.1 µM	0.15 µM		
COc1ccc(CCCCCCC(=O)O)cc1Cc1cnc(N)nc1N [Compound 7]	0.03 µM			4.6 µM	0.53 µM	0.089 µM	
COc1ccc(OCc2cccc(C(=O)O)c2)cc1Cc1cnc(N)nc1N [Compound 8, 2,4-Diamino-5-[2′-methoxy-5′-(3″-carboxybenzyloxy)benzyl]pyrimidine]	0.6 µM			19 µM	0.89 µM	0.12 µM	
COc1ccc(OCc2ccc(C(=O)O)cc2)cc1Cc1cnc(N)nc1N [Compound 9, 2,4-Diamino-5-(2′-methoxy-5′-(4″-carboxybenzyloxy)benzyl]pyrimidine]		0.06 µM	2 µM	21 µM			
COc1ccc(C#CCOc2ccccc2C(=O)O)cc1Cc1cnc(N)nc1N [Compound 10, 2,4-Diamino-5-[2′-methoxy-5′-[3-(2″-carboxyphenoxy)propyn-1-yl]benzyl]pyrimidine]			0.5 µM	6.2 µM	2.3 µM	0.036 µM	Selectivity Index (SI) T. gondii [1, 5]: 13 (9.3-17); Selectivity Index (SI) M. avium [2]: 170 (130-230); Selectivity Index (SI) P. carinii [3, 5]: 2.7 (2.1-3.5)
COc1ccc(C#CCOc2cccc(C(=O)O)c2)cc1Cc1cnc(N)nc1N [Compound 11, 2,4-Diamino-5-[2′-methoxy-5′-[3-(3″-carboxyphenoxy)-1-propynyl]benzyl]pyrimidine]	1.6 µM			14 µM	5.6 µM	0.057 µM	
CCc1nc(N)nc(N)c1-c1ccc(Cl)c(N=NN2CCOCC2)c1 [Compound 37]							SI against Tg DHFR [4]: 37: R^1R^2 = morpholino (IC50 = 0.19 μM, SI = 140)^18; IC50 [4]: 0.19 µM
CCc1nc(N)nc(N)c1-c1ccc(Cl)c(N=NN(C)C)c1 [Compound 38]							IC50 ([4]; literature compounds of Table 2, standardized assay conditions): 0.31 µM; SI against Tg DHFR ([4]; literature compounds of Table 2, Tg versus rat DHFR): 61
Nc1nc(N)c2nc(CN3c4ccccc4C=Cc4ccccc43)cnc2n1 [Compound 40]							SI against Tg DHFR [4]: 40: R = N-Dibenz[b,f]azepinyl (IC50 = 0.043 μM, SI = 102)^3g
COc1cc(Cc2cnc(N)nc2N)cc(C#CCCCC(=O)O)c1OC [Compound 49, 2,4-Diamino-5-[3′,4′-dimethoxy-5′-(5-carboxy-1-pentynyl)benzyl]-pyrimidine]				5000 µM	0.001 µM	0.0024 µM	
